Test results reported in patent US20240384268A1, “Oligonucleotides” (Hudson Institute of Medical Research, priority 2021, published 2024).
In the oligonucleotide strings, read from the 5' end, every base follows the letter of its sugar. An asterisk marks phosphorothioate; unmarked linkages are phosphodiester. Other units and linkages are bracketed, terminal groups are in braces. A string of capitals states the bases alone. d = 2'-deoxy (DNA); m = 2'-O-methyl

Assays:
Assay type in all cases: cell-based
[1] = target: T1, TLR8 (Homo sapiens, UniProt Q9NR97); assay: HEK-TLR8 NF-κB-luciferase reporter, R848 or Motolimod stimulation (potentiation or inhibition); parameters: expressed in transfected cells; host or cells: 293XLhTLR8 (HEK293); settings: HEK-TLR8; 500 nM ASO ~30 min; R848 overnight
T1 sequence (Q9NR97 27-1041): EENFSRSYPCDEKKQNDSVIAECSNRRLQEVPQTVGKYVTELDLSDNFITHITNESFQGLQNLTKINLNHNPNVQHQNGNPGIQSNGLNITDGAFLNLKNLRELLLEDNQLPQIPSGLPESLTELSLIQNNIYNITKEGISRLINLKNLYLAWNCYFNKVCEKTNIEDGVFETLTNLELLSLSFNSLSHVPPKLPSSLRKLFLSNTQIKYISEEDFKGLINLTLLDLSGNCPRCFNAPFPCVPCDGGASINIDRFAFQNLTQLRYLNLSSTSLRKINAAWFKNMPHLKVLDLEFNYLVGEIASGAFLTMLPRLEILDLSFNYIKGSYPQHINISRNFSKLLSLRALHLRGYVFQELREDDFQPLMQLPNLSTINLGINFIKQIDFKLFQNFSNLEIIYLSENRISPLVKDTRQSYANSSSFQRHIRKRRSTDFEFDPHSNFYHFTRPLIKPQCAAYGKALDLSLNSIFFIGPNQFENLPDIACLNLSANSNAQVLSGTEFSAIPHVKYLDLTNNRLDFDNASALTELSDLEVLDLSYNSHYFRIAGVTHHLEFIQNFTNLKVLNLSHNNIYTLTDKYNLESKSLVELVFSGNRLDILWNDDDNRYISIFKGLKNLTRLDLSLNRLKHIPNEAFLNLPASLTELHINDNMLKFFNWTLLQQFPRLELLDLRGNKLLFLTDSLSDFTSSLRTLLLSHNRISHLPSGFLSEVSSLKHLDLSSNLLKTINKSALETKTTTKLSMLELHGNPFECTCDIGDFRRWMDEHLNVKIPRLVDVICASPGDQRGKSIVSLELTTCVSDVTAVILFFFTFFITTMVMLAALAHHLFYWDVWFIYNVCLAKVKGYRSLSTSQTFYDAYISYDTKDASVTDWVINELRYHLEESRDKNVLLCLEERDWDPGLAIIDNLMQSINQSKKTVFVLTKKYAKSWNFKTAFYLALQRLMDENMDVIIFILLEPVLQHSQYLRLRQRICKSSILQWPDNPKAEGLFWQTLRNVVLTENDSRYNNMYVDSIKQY
Procedure: (§1) In such examples, potentiation of TLR8 activity can be identified by observation of an overall increased TLR8 response of the cell population, or a higher proportion of cells having TLR8-positive activity as compared to a negative control condition in which cells are treated with TLR8 agonist in the absence of the oligonucleotide (or in the presence of an appropriate control non-potentiating agent). In one example, 293XLhTLR8 (referred to as HEK-TLR8) cells are transfected with pNF-κB-Luc4 reporter, incubated with an oligonucleotide, and then stimulated with R848. TLR8 activity can be determined by a luciferase assay, which measures activated NF-κB by luminescence. TLR8 activity can also be analysed by measuring cytokine levels, for example by ELISA.
as §1, with “inhibition” for “potentiation”, “decreased” for “increased”, “lower” for “higher”, “positive” for “negative”, “inhibitory” for “non-potentiating”
(§2) For cGAS stimulations, cells were treated for indicated duration with ASOs, prior to transfection with ISD70 (human cells) or ISD45 (mouse cells) (the ASOs were not washed off prior to ISD transfection unless otherwise indicated). The cGAS ligands ISD45 (Stetson and Medzhitov, 2006) and ISD70 (also known as VACV-70 (Unterholzner et al., 2010)) (Table 1) were resuspended as follows: 5 1d of sense and 5 μl of antisense strands at 10 μg/μl were added to 90 μl PBS under sterile conditions, heated at 75° C. for 30 min, prior to letting cool down at room temperature and aliquoting (stock at 1 μg/1 l). The ISDs were transfected at a concentration of […] at a ratio of 1 μg:1 μl with Lipofectamine 2000 in Opti-MEM (Thermo Fisher Scientific). HEK-TLR3, HEK-TLR7 and […] were treated with indicated concentration of ASOs for 20-50 min, prior to stimulation with poly(I:C) (Invivogen), R848 (Invivogen), Motolimod (MedChemExpress) and the Class B CpG oligonucleotides ODN 2006 (synthesised by IDT and resuspended in RNase-free TE buffer [Table 1]), respectively. The TLR2/1 agonist PAM3CSK4 (Invivogen), the TLR4 agonist lipopolysaccharide (Invivogen), the Class B CpG oligonucleotides ODN 1826 (synthesised by IDT and resuspended in RNase-free TE buffer), the mouse Sting agonist DMXAA (Cayman) and the human STING agonist (compound #3 from (Raanjulu et al., 2018), referred to as GSK herein—kind gift from Cancer Therapeutics CRC, Australia) were used at indicated concentrations. Aspirin (Sigma—A2093) was resuspended in pure medium to 10 mM, filter sterilised and added to the cells at 2 mM final. All ASOs were synthesised by Integrated DNA Technologies (IDT), and resuspended in RNase-free TE buffer, pH 8.0 (Thermo Fisher Scientific). Cell viability was assessed by adding 1× fresh resazurin solution to the wells (10λ solution made up with 7 mg resazurin [Sigma—R7017] dissolved in 3.5 ml PBS, sterile filtered at […]) for 4 h, prior to reading at with a Fluostar OPTIMA (BMG LABTECH) plate-reader (fluorescence: Excitation 535 nm, Emission 590); wells with medium only and 1× resazurin were used as blanks.

[2] = target: cGAS (Homo sapiens, UniProt Q8N884); assay: ISD70-driven IP-10 (and IFN-β) production in THP-1 cells, ELISA; parameters: endogenous in cells; host or cells: THP-1 (undifferentiated); settings: THP-1; 2′OMe or PS oligos, 100-250 nM, pre-treatment as in figure legends; ISD70 2.5 μg/ml
Sequence of cGAS (Q8N884 whole entry): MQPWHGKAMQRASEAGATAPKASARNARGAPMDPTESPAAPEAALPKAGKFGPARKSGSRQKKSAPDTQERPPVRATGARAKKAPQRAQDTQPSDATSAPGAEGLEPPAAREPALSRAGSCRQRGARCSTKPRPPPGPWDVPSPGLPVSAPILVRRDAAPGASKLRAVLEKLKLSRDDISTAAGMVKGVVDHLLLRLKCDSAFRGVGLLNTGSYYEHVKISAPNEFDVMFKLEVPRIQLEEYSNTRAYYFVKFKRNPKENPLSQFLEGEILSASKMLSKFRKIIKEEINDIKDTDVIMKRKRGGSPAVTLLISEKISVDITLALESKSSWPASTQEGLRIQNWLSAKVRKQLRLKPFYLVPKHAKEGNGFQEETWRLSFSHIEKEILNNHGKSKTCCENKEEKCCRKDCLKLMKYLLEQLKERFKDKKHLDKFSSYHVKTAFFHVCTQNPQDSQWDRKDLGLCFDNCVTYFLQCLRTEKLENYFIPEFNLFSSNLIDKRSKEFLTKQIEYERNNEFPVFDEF
Procedure: The ability of an oligonucleotide to inhibit cGAS activity can, for example, be analysed by incubating cells which express cGAS with an oligonucleotide, then stimulating said cells with a cGAS agonist (e.g., 70-bp interferon stimulating DNA or ISD70; 45-bp interferon stimulating DNA or ISD45), and analysing the overall cGAS response in the cell population, or analysing the proportion of cells having cGAS-positive activity after a defined period of time.
In such examples, inhibition of cGAS activity can be identified by observation of an overall decreased cGAS response of the cell population, or a lower proportion of cells having cGAS-positive activity as compared to positive control condition in which cells are treated with cGAS agonist in the absence of the oligonucleotide (or in the presence of an appropriate control inhibitory agent). In one example, THP-1 or HT-29 cells are transfected with ISD70 and incubated with an oligonucleotide. cGAS activity can then be determined by cytokine (e.g., IP-10 and/or IFNβ) expression (e.g., gene and/or protein expression) and/or secretion levels, such as by ELISA. A similar assay can be performed with LL171 cells transfected with ISD45. […] By way of example, cGAS enzymatic activity may be assessed in vitro using recombinant cGAS and then measuring activity thereof by way of a cGAMP ELISA.
as §2

[3] = target: T2, human TLR9 (Homo sapiens, UniProt Q9NR96); assay: HEK-TLR9 NF-κB-luciferase reporter, ODN2006 stimulation; settings: HEK-TLR9; 500 nM 2′OMe or PS oligos; 200 nM ODN2006
T2 construct: HA; host or cells: 293XL-hTLR9-HA (HEK293)
T2 sequence (Q9NR96 26-1032): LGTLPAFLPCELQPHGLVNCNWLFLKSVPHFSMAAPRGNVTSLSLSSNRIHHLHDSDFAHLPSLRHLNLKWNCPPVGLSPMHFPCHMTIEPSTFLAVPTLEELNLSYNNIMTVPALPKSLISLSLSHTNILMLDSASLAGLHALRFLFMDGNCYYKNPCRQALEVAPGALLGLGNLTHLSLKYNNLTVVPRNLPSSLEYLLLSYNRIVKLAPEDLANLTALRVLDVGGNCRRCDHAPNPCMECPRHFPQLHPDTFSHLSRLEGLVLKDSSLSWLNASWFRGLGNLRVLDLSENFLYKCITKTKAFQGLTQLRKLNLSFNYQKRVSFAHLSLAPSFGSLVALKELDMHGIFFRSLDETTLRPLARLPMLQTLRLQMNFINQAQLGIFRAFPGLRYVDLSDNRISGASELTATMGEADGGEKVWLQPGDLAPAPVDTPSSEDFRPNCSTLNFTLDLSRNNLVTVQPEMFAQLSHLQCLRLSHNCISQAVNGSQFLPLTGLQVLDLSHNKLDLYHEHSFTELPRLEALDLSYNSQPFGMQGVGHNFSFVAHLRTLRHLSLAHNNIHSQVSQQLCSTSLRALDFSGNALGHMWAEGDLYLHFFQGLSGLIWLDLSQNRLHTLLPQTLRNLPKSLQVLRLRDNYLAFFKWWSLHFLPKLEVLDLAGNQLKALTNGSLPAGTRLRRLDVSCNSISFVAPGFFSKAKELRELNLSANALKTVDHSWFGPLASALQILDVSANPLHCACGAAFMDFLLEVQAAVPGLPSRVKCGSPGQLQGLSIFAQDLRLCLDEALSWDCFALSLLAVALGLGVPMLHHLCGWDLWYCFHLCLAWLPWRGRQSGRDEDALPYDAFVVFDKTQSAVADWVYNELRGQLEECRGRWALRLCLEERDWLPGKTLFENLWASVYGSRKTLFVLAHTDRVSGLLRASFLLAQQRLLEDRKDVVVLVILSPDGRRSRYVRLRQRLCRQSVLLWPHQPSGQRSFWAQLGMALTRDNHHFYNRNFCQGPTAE
Procedure: In such examples, inhibition of TLR9 activity can be identified by observation of an overall decreased TLR9 response of the cell population, or a lower proportion of cells having TLR9-positive activity as compared to positive control condition in which cells are treated with TLR9 agonist in the absence of the oligonucleotide (or in the presence of an appropriate control inhibitory agent). In one example, HEK cells are transfected with TLR9 and a NF-κB reporter and incubated with an oligonucleotide and then stimulated with a TLR9 agonist. TLR9 activity can then be determined by a luciferase assay. TLR9 activity can also be analysed by measuring cytokine levels (e.g., IFN, IL-6, TNF and IL-12), for example by ELISA.
as §2
Following transfection, the cells were collected from the 6-wells and aliquoted into 96-wells, just before ASO and overnight TLR stimulation (as above described). Similarly, the LL171 cells expressing and ISRE-Luc reporter were treated overnight. The next day, the cells were lysed in 40 μl (for a 96-well plate) of 1× Glo Lysis buffer (Promega) for 10 min at room temperature. […] was then subjected to firefly luciferase assay using 40 μl of Luciferase Assay Reagent (Promega). Luminescence was quantified with a Fluostar OPTIMA (BMG LABTECH) luminometer.

Substance | inhibition of ISD70-driven IP-10 production (in words) [2] | also measured
mC*mU*mU*mC*mG*T*G*G*G*G*T*C*C*T*T*mU*mU*mC*mA*mC (CUUCGTGGGGTCCTTUUCAC; antisense; sugars from the 5' end m5 d10 m5, all phosphorothioate, methylation of C not given here) [[HPRT]660] |  | TLR8 potentiation of R848 sensing, 20-mer ASOs (in words) [1]: strong potentiator of TLR8 sensing
mG*mC*mG*mG*mU*A*T*C*C*A*T*C*A*G*A*mU*mA*mU*mC*mG (mG*mC*mG*mG*mU*dA*dT*dC*dC*dA*dT*dC*dA*dG*dA*mU*mA*mU*mC*mG; antisense) [C2-ASO2-B] | significantly less inhibitory than C2-ASO2-A | 
mGmCmGmGmUmAmUmCmCmAmUmGmUmCmCmCmAmGmGmC (GCGGUAUCCAUGUCCCAGGC; all 2'-O-methyl, backbone not given here) [fully 2′Ome modified version of C2Mut1] | strongly blunting of cGAS activation | 
mC*mA*mA*mC*mA*C*T*T*C*G*T*G*G*G*G*mU*mC*mC*mU*mU (CAACACTTCGTGGGGUCCUU; antisense; sugars from the 5' end m5 d10 m5, all phosphorothioate, methylation of C not given here) [[HPRT]665] |  | inhibition of TLR9 sensing of ODN2006 (in words) [3]: only poorly inhibitory
